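Cells were grown in 96-well plates and exposed to each compound for 48 hours at five concentrations; endpoints were interpolated linearly between bracketing concentrations, or set to the highest concentration if not reached. GI50 marks 50% less growth. The concentration for full growth arrest is given as TGI.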
Legend:
Experiment in all cases: NCI-60 cell line screen, 48 h
786-0 renal = system: 786-0 renal
A498 renal = system: A498 renal
A549 NSCLC = system: A549 NSCLC
ACHN renal = system: ACHN renal
BT-549 breast = system: BT-549 breast
CAKI-1 renal = system: CAKI-1 renal
CCRF-CEM leukemia = system: CCRF-CEM leukemia
COLO 205 colon = system: COLO 205 colon
DU-145 prostate = system: DU-145 prostate
EKVX NSCLC = system: EKVX NSCLC
HCC-2998 colon = system: HCC-2998 colon
HCT-116 colon = system: HCT-116 colon
HCT-15 colon = system: HCT-15 colon
HL-60(TB) leukemia = system: HL-60(TB) leukemia
HOP-62 NSCLC = system: HOP-62 NSCLC
HOP-92 NSCLC = system: HOP-92 NSCLC
HS 578T breast = system: HS 578T breast
HT29 colon = system: HT29 colon
IGROV1 ovarian = system: IGROV1 ovarian
K-562 leukemia = system: K-562 leukemia
KM12 colon = system: KM12 colon
LOX IMVI melanoma = system: LOX IMVI melanoma
M14 melanoma = system: M14 melanoma
MALME-3M melanoma = system: MALME-3M melanoma
MCF7 breast = system: MCF7 breast
MDA-MB-231 breast = system: MDA-MB-231 breast
MDA-MB-435 = system: MDA-MB-435
MOLT-4 leukemia = system: MOLT-4 leukemia
NCI-H226 lung = system: NCI-H226 lung
NCI-H23 lung = system: NCI-H23 lung
NCI-H460 lung = system: NCI-H460 lung
NCI-H522 lung = system: NCI-H522 lung
NCI/ADR-RES ovarian = system: NCI/ADR-RES ovarian
OVCAR-3 ovarian = system: OVCAR-3 ovarian
OVCAR-4 ovarian = system: OVCAR-4 ovarian
OVCAR-5 ovarian = system: OVCAR-5 ovarian
OVCAR-8 ovarian = system: OVCAR-8 ovarian
PC-3 prostate = system: PC-3 prostate
RPMI-8226 leukemia = system: RPMI-8226 leukemia
RXF 393 renal = system: RXF 393 renal
SF-268 CNS = system: SF-268 CNS
SF-295 CNS = system: SF-295 CNS
SF-539 CNS = system: SF-539 CNS
SK-MEL-2 melanoma = system: SK-MEL-2 melanoma
SK-MEL-28 melanoma = system: SK-MEL-28 melanoma
SK-MEL-5 melanoma = system: SK-MEL-5 melanoma
SK-OV-3 ovarian = system: SK-OV-3 ovarian
SN12C renal = system: SN12C renal
SNB-75 CNS = system: SNB-75 CNS
SR leukemia = system: SR leukemia
SW-620 colon = system: SW-620 colon
T-47D breast = system: T-47D breast
U251 CNS = system: U251 CNS
UACC-257 melanoma = system: UACC-257 melanoma
UACC-62 melanoma = system: UACC-62 melanoma
UO-31 renal = system: UO-31 renal

COc1cc(/C=C2\CN(C)C/C(=C\c3cc(CN4CCCCC4)c(O)c(OC)c3)C2=O)cc(CN2CCCCC2)c1O
GI50 (786-0 renal): 3.92 µM | TGI (786-0 renal): 14.5 µM | GI50 (A498 renal): 10.1 µM | TGI (A498 renal): 22.7 µM | GI50 (A549 NSCLC): 3.76 µM | TGI (A549 NSCLC): 16.1 µM | GI50 (ACHN renal): 3.95 µM | TGI (ACHN renal): 13.9 µM | GI50 (BT-549 breast): 4.61 µM | TGI (BT-549 breast): 16.3 µM | GI50 (CAKI-1 renal): 4.62 µM | TGI (CAKI-1 renal): 17.5 µM | GI50 (CCRF-CEM leukemia): 2.77 µM | TGI (CCRF-CEM leukemia): 7.52 µM | GI50 (COLO 205 colon): 1.96 µM | TGI (COLO 205 colon): 3.74 µM | GI50 (DU-145 prostate): 3.88 µM | TGI (DU-145 prostate): 13.7 µM | GI50 (EKVX NSCLC): 4.57 µM | TGI (EKVX NSCLC): 17.6 µM | GI50 (HCC-2998 colon): 2.61 µM | TGI (HCC-2998 colon): 12 µM | GI50 (HCT-116 colon): 2.5 µM | TGI (HCT-116 colon): 8 µM | GI50 (HCT-15 colon): 3.29 µM | TGI (HCT-15 colon): 12.7 µM | GI50 (HL-60(TB) leukemia): 2.8 µM | TGI (HL-60(TB) leukemia): 7.47 µM | GI50 (HOP-62 NSCLC): 4.28 µM | TGI (HOP-62 NSCLC): 18.4 µM | GI50 (HOP-92 NSCLC): 2.55 µM | TGI (HOP-92 NSCLC): 9.21 µM | GI50 (HS 578T breast): 3.27 µM | TGI (HS 578T breast): 80.6 µM | GI50 (HT29 colon): 2.43 µM | TGI (HT29 colon): 6.42 µM | GI50 (IGROV1 ovarian): 3.36 µM | TGI (IGROV1 ovarian): 13.6 µM | GI50 (K-562 leukemia): 3.12 µM | TGI (K-562 leukemia): 35.2 µM | GI50 (KM12 colon): 2.17 µM | TGI (KM12 colon): 4.97 µM | GI50 (LOX IMVI melanoma): 2.34 µM | TGI (LOX IMVI melanoma): 6.19 µM | GI50 (M14 melanoma): 3.02 µM | TGI (M14 melanoma): 10.8 µM | GI50 (MALME-3M melanoma): 5.62 µM | TGI (MALME-3M melanoma): 19.6 µM | GI50 (MCF7 breast): 2.93 µM | TGI (MCF7 breast): 13.9 µM | GI50 (MDA-MB-231 breast): 3.18 µM | TGI (MDA-MB-231 breast): 11.6 µM | GI50 (MDA-MB-435): 3.6 µM | TGI (MDA-MB-435): 13.2 µM | GI50 (MOLT-4 leukemia): 2.95 µM | TGI (MOLT-4 leukemia): 10.7 µM | GI50 (NCI-H226 lung): 10.5 µM | TGI (NCI-H226 lung): 25.9 µM | GI50 (NCI-H23 lung): 5.11 µM | TGI (NCI-H23 lung): 21.4 µM | GI50 (NCI-H460 lung): 2.18 µM | TGI (NCI-H460 lung): 5.13 µM | GI50 (NCI-H522 lung): 2.68 µM | TGI (NCI-H522 lung): 11.9 µM | GI50 (NCI/ADR-RES ovarian): 6.24 µM | TGI (NCI/ADR-RES ovarian): > 100 µM | GI50 (OVCAR-3 ovarian): 3 µM | TGI (OVCAR-3 ovarian): 10.4 µM | GI50 (OVCAR-4 ovarian): 4.77 µM | TGI (OVCAR-4 ovarian): 54.1 µM | GI50 (OVCAR-5 ovarian): 2.29 µM | TGI (OVCAR-5 ovarian): 5.81 µM | GI50 (OVCAR-8 ovarian): 3.12 µM | TGI (OVCAR-8 ovarian): > 100 µM | GI50 (PC-3 prostate): 4.36 µM | TGI (PC-3 prostate): 26.2 µM | GI50 (RPMI-8226 leukemia): 3.04 µM | TGI (RPMI-8226 leukemia): 9.32 µM | GI50 (RXF 393 renal): 2.01 µM | TGI (RXF 393 renal): 6.86 µM | GI50 (SF-268 CNS): 3.97 µM | TGI (SF-268 CNS): 17.4 µM | GI50 (SF-295 CNS): 4.52 µM | TGI (SF-295 CNS): 17.1 µM | GI50 (SF-539 CNS): 2.75 µM | TGI (SF-539 CNS): 8.17 µM | GI50 (SK-MEL-2 melanoma): 3.53 µM | TGI (SK-MEL-2 melanoma): 13.2 µM | GI50 (SK-MEL-28 melanoma): 11.6 µM | TGI (SK-MEL-28 melanoma): 24.5 µM | GI50 (SK-MEL-5 melanoma): 13 µM | TGI (SK-MEL-5 melanoma): 26.1 µM | GI50 (SK-OV-3 ovarian): 7.71 µM | TGI (SK-OV-3 ovarian): 37.2 µM | GI50 (SN12C renal): 3.24 µM | TGI (SN12C renal): 12.8 µM | GI50 (SNB-75 CNS): 1.99 µM | TGI (SNB-75 CNS): 9.13 µM | GI50 (SR leukemia): 3.15 µM | TGI (SR leukemia): 9.37 µM | GI50 (SW-620 colon): 3.27 µM | TGI (SW-620 colon): 12.6 µM | GI50 (T-47D breast): 5.72 µM | TGI (T-47D breast): 24 µM | GI50 (U251 CNS): 3.1 µM | TGI (U251 CNS): 13.2 µM | GI50 (UACC-257 melanoma): 7.99 µM | TGI (UACC-257 melanoma): 22 µM | GI50 (UACC-62 melanoma): 7.2 µM | TGI (UACC-62 melanoma): 20.3 µM | GI50 (UO-31 renal): 3.78 µM | TGI (UO-31 renal): 17.7 µM
